SMILES strings stand for the structures.

By IC50 is commonly meant the concentration needed to halve the response being measured.

In the experiment the target is IRAK4 (Homo sapiens (Human), UniProt Q9NWZ3). The experiment is described as follows: IRAK4 Inhibition Assay. The experiment is classed as biochemical. As to conditions: ATP 500 μM; IRAK4 0.6 nM. The method, then: The assays were performed in U-bottom 384-well plates. The final assay volume was 30 μL prepared from 15 μL additions of enzyme and substrates (fluoresceinated peptide and ATP) and test compounds in assay buffer (20 mM HEPES pH 7.2, 10 mM MgCl2, 0.015% Brij 35 and 4 mM DTT). The reaction was initiated by the combination of IRAK4 with substrates and test compounds. The reaction mixture was incubated at room temperature for 60 min. and terminated by adding 45 μL of 35 mM EDTA to each sample. The reaction mixture was analyzed on the Caliper LABCHIP® 3000 (Caliper, Hopkinton, Mass.) by electrophoretic separation of the fluorescent substrate and phosphorylated product. Inhibition data were calculated by comparison to no enzyme control reactions for 100% inhibition and vehicle-only reactions for 0% inhibition. The final concentrations of reagents in the assays are ATP, 500 μM; FL-IPTSPITTTYFFFKKK peptide 1.5 μM; IRAK4, 0.6 nM; and DMSO, 1.6%.
Chain of IRAK4 (Q9NWZ3 whole entry): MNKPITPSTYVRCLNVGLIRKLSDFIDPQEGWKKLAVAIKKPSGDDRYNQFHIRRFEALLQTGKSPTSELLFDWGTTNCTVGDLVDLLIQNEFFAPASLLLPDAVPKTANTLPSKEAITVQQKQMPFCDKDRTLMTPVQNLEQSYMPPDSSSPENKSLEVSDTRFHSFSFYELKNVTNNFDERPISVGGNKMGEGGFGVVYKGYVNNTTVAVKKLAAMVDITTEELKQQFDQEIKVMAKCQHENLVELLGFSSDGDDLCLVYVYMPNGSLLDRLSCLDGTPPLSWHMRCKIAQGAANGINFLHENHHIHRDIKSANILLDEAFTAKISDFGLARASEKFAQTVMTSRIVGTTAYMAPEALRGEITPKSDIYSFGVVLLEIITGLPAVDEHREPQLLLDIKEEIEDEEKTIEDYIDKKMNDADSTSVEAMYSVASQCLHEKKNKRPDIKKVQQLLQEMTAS
As for `COC1CC(Nc2cc(-c3cnn4cc(Cl)cnc34)ncc2C(=O)NC[C@@H](F)C(C)(C)O)CC1(F)F` (single isomer, unassigned) [Example 14], the IC50 was 22 nM. For the molecule `CC(C)(O)[C@H](F)CNC(=O)c1cnc(-c2cnn3cc(C#N)cnc23)cc1N[C@H]1COC[C@@H]1F` (single isomer, unassigned) [Example 116], the IC50 was 21 nM. `CC(C)(O)[C@H](F)CNC(=O)c1cnc(-c2cnn3cc(C#N)cnc23)cc1N[C@H]1COC[C@@H]1F` (single isomer, unassigned) [Example 117]: the IC50 was 39 nM. For the molecule `CC(C)(O)[C@H](F)CNC(=O)c1cnc(-c2cnn3cc(C#N)cnc23)cc1NCC1(O)CCCOC1` (single isomer, unassigned) [Example 122], the IC50 turned out to be 30 nM. Regarding `CC(C)(O)[C@H](F)CNC(=O)c1cnc(-c2cnn3cc(C#N)cnc23)cc1NCC1(O)CCCOC1` (single isomer, unassigned) [Example 123], the IC50 came out at 42 nM. As to `CC(C)(O)[C@H](F)CNC(=O)c1cnc(-c2cnc3cccnn23)cc1NC1COCC1O` (single isomer, unassigned) [Example 134], the IC50 turned out to be 92 nM.

Take `CC(C)(O)[C@H](F)CNC(=O)c1cnc(-c2cnc3cccnn23)cc1NC1COCC1O` (single isomer, unassigned) [Example 135]: the IC50 was found to be 44 nM.

Turning to `CC(C)Nc1cc(-c2cnn3cc(Cl)cnc23)ncc1C(=O)NCC(F)C(O)(CO)CO` (stereo not shown) [Example 8, 6-(6-chloropyrazolo[1,5-a]pyrimidin-3-yl)-N-(2-fluoro-3,4-dihydroxy-3-(hydroxymethyl)butyl)-4-(isopropylamino)nicotinamide], the IC50 is 24 nM.

As for `CC(C)Nc1cc(-c2cnn3cc(Cl)cnc23)ncc1C(=O)NCC(F)C1(O)COC1` (stereo not shown) [Example 9, 6-(6-chloropyrazolo[1,5-a]pyrimidin-3-yl)-N-(2-fluoro-2-(3-hydroxyoxetan-3-yl)ethyl)-4-(isopropylamino)nicotinamide], the IC50 came to 5 nM. Take `CC(C)Nc1cc(-c2cnn3cc(Cl)cnc23)ncc1C(=O)Nc1cnn(CC(=O)NC[C@@H](F)C(C)(C)O)c1` [Example 10, (R)-6-(6-chloropyrazolo[1,5-a]pyrimidin-3-yl)-N-(1-(2-((2-fluoro-3-hydroxy-3-methylbutyl)amino)-2-oxoethyl)-1H-pyrazol-4-yl)-4-(isopropylamino)nicotinamide]: the IC50 is 99 nM. Consider `CO[C@H]1CC[C@H](NC(=O)c2cnc(-c3cnn4cc(Cl)cnc34)cc2NC(C)C)CC1` [Example 11, 6-(6-chloropyrazolo[1,5-a]pyrimidin-3-yl)-4-(isopropylamino)-N-((1R,4R)-4-methoxycyclohexyl)nicotinamide], for which the IC50 was found to be 14 nM. As for `CC(C)(F)CCNC(=O)c1cnc(-c2cnn3cc(Cl)cnc23)cc1NC1COC1` [Example 12, 6-(6-chloropyrazolo[1,5-a]pyrimidin-3-yl)-N-(3-fluoro-3-methylbutyl)-4-(oxetan-3-ylamino)nicotinamide], the figure is 92 nM; as for `COC1CCC(F)(CCNC(=O)c2cnc(-c3cnn4cc(Cl)cnc34)cc2NC2COC2)CC1` (stereo not shown) [Example 17, 6-(6-chloropyrazolo[1,5-a]pyrimidin-3-yl)-N-(2-(1-fluoro-4-methoxycyclohexyl)ethyl)-4-(oxetan-3-ylamino)nicotinamide], 19 nM; as for `CNC(=O)[C@H]1CC[C@H](NC(=O)c2cnc(-c3cnn4cc(Cl)cnc34)cc2NCC(C)(C)F)CC1` [Example 24, 6-(6-chloropyrazolo[1,5-a]pyrimidin-3-yl)-4-((2-fluoro-2-methylpropyl)amino)-N-((1r,4r)-4-(methylcarbamoyl)cyclohexyl)nicotinamide], 35 nM. For `CC(C)Nc1cc(-c2cnn3cc(Cl)cnc23)ncc1C(=O)NCCc1ccc(S(N)(=O)=O)cc1` [Example 26, 6-(6-chloropyrazolo[1,5-a]pyrimidin-3-yl)-4-(isopropylamino)-N-(4-sulfamoylphenethyl)nicotinamide], the IC50 was 8 nM. Under `CC(C)Nc1cc(-c2cnn3cc(Cl)cnc23)ncc1C(=O)N[C@H]1CC[C@H](C(=O)NC(C)C)CC1` [Example 29, 6-(6-chloropyrazolo[1,5-a]pyrimidin-3-yl)-4-(isopropylamino)-N-((1r,4r)-4-(isopropylcarbamoyl)cyclohexyl)nicotinamide] stands 24 nM; under `CC(C)(O)[C@H](F)CNC(=O)c1cnc(-c2cnn3cc(Cl)cnc23)cc1N[C@@H]1CCN(c2ncc(F)cn2)C1` [Example 36, 6-(6-chloropyrazolo[1,5-a]pyrimidin-3-yl)-N—((R)-2-fluoro-3-hydroxy-3-methylbutyl)-4-(((R)-1-(5-fluoropyrimidin-2-yl)pyrrolidin-3-yl)amino)nicotinamide], 5 nM; under `CC1(CNc2cc(-c3cnn4cc(Cl)cnc34)ncc2C(=O)NC[C@@H](F)C(C)(C)O)COC1` [Example 38, (R)-6-(6-chloropyrazolo[1,5-a]pyrimidin-3-yl)-N-(2-fluoro-3-hydroxy-3-methylbutyl)-4-(((3-methyloxetan-3-yl)methyl)amino)nicotinamide], 7 nM. In the case of `CC(C)(O)[C@H](F)CNC(=O)c1cnc(-c2cnn3cc(Cl)cnc23)cc1NCC1(O)COC1` [Example 39, (R)-6-(6-chloropyrazolo[1,5-a]pyrimidin-3-yl)-N-(2-fluoro-3-hydroxy-3-methylbutyl)-4-(((3-hydroxyoxetan-3-yl)methyl)amino)nicotinamide], the IC50 was found to be 18 nM.

As to `CC(C)(O)[C@H](F)CNC(=O)c1cnc(-c2cnn3cc(Cl)cnc23)cc1N[C@@H]1COC[C@H]1O` [Example 42, 6-(6-chloropyrazolo[1,5-a]pyrimidin-3-yl)-N—((R)-2-fluoro-3-hydroxy-3-methylbutyl)-4-(((3R,4S)-4-hydroxytetrahydrofuran-3-yl)amino) nicotinamide], the IC50 came out at 8 nM. As for `CC(C)(O)[C@H](F)CNC(=O)c1cnc(-c2cnn3cc(Cl)cnc23)cc1N[C@@H]1COC[C@H]1F` [Example 43, 6-(6-chloropyrazolo[1,5-a]pyrimidin-3-yl)-N—((R)-2-fluoro-3-hydroxy-3-methylbutyl)-4-(((3R,4S)-4-fluorotetrahydrofuran-3-yl)amino)nicotinamide], the figure is 17 nM. For the molecule `CNC(=O)Cn1cc(NC(=O)c2cnc(-c3cnn4cc(Cl)cnc34)cc2NC(C)C)cn1` [Example 45, 6-(6-chloropyrazolo[1,5-a]pyrimidin-3-yl)-4-(isopropylamino)-N-(1-(2-(methylamino)-2-oxoethyl)-1H-pyrazol-4-yl)nicotinamide], the IC50 was determined as 34 nM. Consider `CC(C)(O)[C@H](F)CNC(=O)c1cnc(-c2cnn3cc(Cl)cnc23)cc1NC1CCOC1` (stereo partly drawn) [Example 53, 6-(6-chloropyrazolo[1,5-a]pyrimidin-3-yl)-N—((R)-2-fluoro-3-hydroxy-3-methylbutyl)-4-((tetrahydrofuran-3-yl)amino)nicotinamide], for which the IC50 came out at 4 nM. `CC(C)(O)[C@H](F)CNC(=O)c1cnc(-c2cnn3cc(Cl)cnc23)cc1NC1CCOC1` (stereo partly drawn) [Example 54, 6-(6-chloropyrazolo[1,5-a]pyrimidin-3-yl)-N—((R)-2-fluoro-3-hydroxy-3-methylbutyl)-4-((tetrahydrofuran-3-yl)amino)nicotinamide]: the IC50 turned out to be 3 nM. Turning to `CC(C)Nc1cc(-c2cnn3cc(Cl)cnc23)ncc1C(=O)NCCC1(O)CCC(C)(O)CC1` (stereo not shown) [Example 55, 6-(6-chloropyrazolo[1,5-a]pyrimidin-3-yl)-N-(2-(1,4-dihydroxy-4-methylcyclohexyl)ethyl)-4-(isopropylamino)nicotinamide], the IC50 turned out to be 9 nM. For `CC(C)(O)[C@H](F)CNC(=O)c1cnc(-c2cnn3cc(Cl)cnc23)cc1N[C@H]1C[C@H](C(C)(C)O)C1` [Example 59, 6-(6-chloropyrazolo[1,5-a]pyrimidin-3-yl)-N—((R)-2-fluoro-3-hydroxy-3-methylbutyl)-4-(((1r,3R)-3-(2-hydroxypropan-2-yl)cyclobutyl)amino)nicotinamide], the IC50 was 6 nM. As for `CC(C)Nc1cc(-c2cnn3cc(Cl)cnc23)ncc1C(=O)NCCC(=O)N1CCOCC1` [Example 62, 6-(6-chloropyrazolo[1,5-a]pyrimidin-3-yl)-4-(isopropylamino)-N-(3-morpholino-3-oxopropyl)nicotinamide], the figure is 47 nM; as for `CC(C)Nc1cc(-c2cnn3cc(Cl)cnc23)ncc1C(=O)NCC(=O)N1CCC2(CCO2)CC1` [Example 63, 6-(6-chloropyrazolo[1,5-a]pyrimidin-3-yl)-4-(isopropylamino)-N-(2-oxo-2-(1-oxa-7-azaspiro[3.5]nonan-7-yl)ethyl)nicotinamide], 8 nM; as for `CC(C)(O)[C@H](F)CNC(=O)c1cnc(-c2cnn3cc(Cl)cnc23)cc1NCC(F)(F)F` [Example 64, (R)-6-(6-chloropyrazolo[1,5-a]pyrimidin-3-yl)-N-(2-fluoro-3-hydroxy-3-methylbutyl)-4-((2,2,2-trifluoroethyl)amino)nicotinamide], 5 nM.

Turning to `CC(C)(C)Nc1cc(-c2cnn3cc(Cl)cnc23)ncc1C(=O)NC[C@@H](F)C(C)(C)O` [Example 72, (R)-4-(tert-butylamino)-6-(6-chloropyrazolo[1,5-a]pyrimidin-3-yl)-N-(2-fluoro-3-hydroxy-3-methylbutyl) nicotinamide], the IC50 was determined as 2 nM.

With `CC(C)Nc1cc(-c2cnn3cc(Cl)cnc23)ncc1C(=O)NC1CCN(S(=O)(=O)C(C)C)CC1` [Example 74, 6-(6-chloropyrazolo[1,5-a]pyrimidin-3-yl)-4-(isopropylamino)-N-(1-(isopropylsulfonyl)piperidin-4-yl)nicotinamide], the IC50 turned out to be 26 nM.

Values taken from patent publication US10618903B2, “Heteroaryl substituted aminopyridine compounds” (BRISTOL-MYERS SQUIBB COMPANY, priority 2015, dated 2020).
